Assay results reported in publication PMC7036548 (Cellular and Molecular Gastroenterology and Hepatology, 2019).

Legend:
DOR-eGFP [1] = biological target: T1, DOR-eGFP (Mus musculus, UniProt P32300); experiment: DOR-eGFP internalization, confocal imaging; conditions: agonist; control 73.8 ± 2.6%; myenteric neurons of colon
human MOR (CHO cells) = human MOR (CHO cells) (Homo sapiens, UniProt P35372); experiment: […]GTPγS binding, CHO membranes; format: biochemical; conditions: 10 μmol/L GDP, pH 7.4, RT; no G protein activation
human MOR (CHO cells), sequence (P35372 whole entry): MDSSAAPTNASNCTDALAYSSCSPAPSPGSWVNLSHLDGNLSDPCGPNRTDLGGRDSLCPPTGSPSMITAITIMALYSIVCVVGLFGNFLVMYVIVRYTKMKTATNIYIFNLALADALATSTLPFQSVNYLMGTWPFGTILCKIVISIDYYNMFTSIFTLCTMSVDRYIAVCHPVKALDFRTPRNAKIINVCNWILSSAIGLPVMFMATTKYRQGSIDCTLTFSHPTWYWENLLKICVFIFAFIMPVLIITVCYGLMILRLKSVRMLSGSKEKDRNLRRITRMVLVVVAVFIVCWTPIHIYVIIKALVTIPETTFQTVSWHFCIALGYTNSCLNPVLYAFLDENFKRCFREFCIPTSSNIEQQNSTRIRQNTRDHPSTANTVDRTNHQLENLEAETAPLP

DOR-eGFP [2] = biological target: T1, DOR-eGFP; experiment: DOR-eGFP internalization, confocal imaging; conditions: agonist, 1 μmol/L; blocked by naltrindole

T1 sequence (P32300 whole entry): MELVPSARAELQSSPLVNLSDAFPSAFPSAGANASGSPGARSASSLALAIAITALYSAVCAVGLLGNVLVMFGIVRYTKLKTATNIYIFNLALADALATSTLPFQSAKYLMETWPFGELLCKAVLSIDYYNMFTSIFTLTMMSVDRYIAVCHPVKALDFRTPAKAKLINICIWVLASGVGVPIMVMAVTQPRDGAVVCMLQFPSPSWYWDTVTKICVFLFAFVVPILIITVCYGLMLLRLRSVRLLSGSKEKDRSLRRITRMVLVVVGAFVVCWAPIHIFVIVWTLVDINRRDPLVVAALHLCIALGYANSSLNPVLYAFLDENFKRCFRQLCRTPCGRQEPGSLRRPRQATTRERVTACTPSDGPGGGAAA

C=CCN1C[C@H](C)N([C@H](c2ccc(C(=O)N(CC)CC)cc2)c2cccc(OC)c2)C[C@H]1C [SNC80]
% cell surface DOR-eGFP at 1 μmol/L (DOR-eGFP [1]): 41.9 ± 2.9%

CCOC(=O)C1(CCc2ccccc2)CCN(Cc2ccc(NC(C)=O)cc2)CC1 [CYM51010]
[35S]GTPγS binding, CHO membranes (human MOR (CHO cells)): increase in G protein activation only in DOR expressing CHO cells | DOR-eGFP internalization, confocal imaging (DOR-eGFP [2]): CYM51010 promoted robust internalization of DOR-eGFP in both myenteric and submucosal neurons
